The text below walks through data of patent US7589080B2, “β-cyclodextrin compositions, and use to prevent transmission of sexually transmitted diseases” (priority 2000, dated 2009).

Marks after values point to notes of the source that are not given here.

One test deals with HIV-1Ba-L-infected HuPBL. As to the kind of experiment: Vaginal transmission of cell-associated HIV-1 in HuPBL-SCID mice. The format is in vivo. To be noted: for Number of mice from which HIV-1 was cultured/Number of mice exposed to HIV-1: P < 0.01. As for the experimental part:
The mice were treated subcutaneously with 2.5 mg progestin (Depo-Provera® progestin; Upjohn Pharmaceuticals; Kalamazoo Mich.), on the same day as administration of 5×10^7 unstimulated HuPBMC intraperitoneally in 1 ml PBS. Seven days following progestin treatment and reconstitution of the SCID mice with HuPBMC, the mice were anesthetized and administered pelleted, cell-free HIV-1Ba-L (up to […]), supernatant fluids from HIV-1Ba-L-infected HuPBL, HIV-1Ba-L-infected HuPBL, or HIV-1MN-infected HuPBL (1×10^6/mouse). In the βCD experiments, the mice received 2-OH-βCD (3% w/v in PBS) 5 min prior to receiving 1×10^6 HIV-1Ba-L-infected HuPBL, 1×10^6 HIV-1Ba-L-infected HuPBL pre-incubated with 3% 2-OH-βCD, or 1×10^6 HIV-1Ba-L-infected HuPBL suspended in PBS.
Mice remained anesthetized for 5 minutes following intravaginal inoculation by pipette. Extreme care was taken to avoid causing trauma to vaginal tissues. Two weeks later the mice were euthanized and peritoneal cells were recovered by lavage with cold PBS. The cells recovered by lavage (of both murine and human origin) were assayed by DNA-PCR for human β-globin to determine the presence of human cells from the peritoneum and for HIV-1 infection by co-culture with PHA-stimulated HuPBMC.
The ability of a βCD to inhibit vaginal transmission of cell-associated HIV-1 was examined. Reconstituted HuPBL-SCID mice were challenged intravaginally with 1×10^6 PBMC infected with HIVBa-L after receiving progesterone subcutaneously and HuPBMC intraperitoneally. For two of the experimental groups the HIV-1 infected PBMC were pre-incubated in either 20 Tl PBS or 2-OH-βCD (3% w/v) before the mixture was inoculated intravaginally.

For another test, the system named is HIV-1RF. As to the kind of experiment: Free virus binding assay (transfer of class II MHC to Jurkat cells). The format is cell-based. As to the method:
Virus binding was measured through host cell antigen transfer as described (Liao et al., supra, 2000). Briefly, Jurkat cells (1×10^6) were washed with serum free RPMI-1640 medium (iRPMI) before incubation in 20 mM 2-OH-βCD in iRPMI or iRPMI alone for 1 hr at 37° C. Cells were then washed twice with iRPMI before adding 100 Tl of clarified HIV-1 supernatant (>10 ng/ml of p24 from PM1 cells) for 1 hr on ice. Excess virus was removed by washing twice with iRPMI. MAbs were then added at 20 ug/ml in 5% NGS/PBS and allowed to incubate for 1 h on ice before washing with iRPMI. FITC-GAM (10 ug/ml) was then added for 45 min on ice before washing with iRPMI. Cells were then fixed with 2% paraformaldehyde followed by analysis on an EPICS Profile II flow cytometer.
The possibility that βCD treatment affected virus binding or interactions between gp120 and CD4 or CRs was examined. In order to measure virus binding to cells, a flow cytometry assay was used that measures the transfer of host cell class II MHC proteins to class II MHC-negative cells by HIV virions, which incorporate large numbers of these proteins into their lipid envelopes. […] Class II MHC-negative Jurkat cells were used as target cells in the HIV binding assay. As a positive control for flow cytometry analysis, class I MHC molecules were probed on the Jurkat cells, which were stained equally well with MAb against this protein before and after 2-OH-βCD treatment (Table 3). When HIV-1RF from class II MHC-positive PM1 cells was added to untreated Jurkat cells, class II MHC MAb mean channel fluorescence increased from 1.0 to 7.8 relative fluorescence units, while the percentage of positive cells increased from 3.0% to 55.4% (Table 3). 2-OH-βCD treatment of the cells reduced virus binding by 70%, as determined by mean channel fluorescence of the anti-class II MHC mAb.
HIV binding to Jurkat cells (control and 2-OH-βCD-treated) was measured by transfer of class II MHC molecules. MAbs used were MHM.5 (anti-class I MHC), positive control; MHM.33 (anti-class II MHC). “MCF” indicates mean channel fluorescence. “% Pos” indicates percent positive cells. “ND” indicates not determined.

Test [1] deals with CXCR4, CD4 and CD45 on PHA blasts. Nature of the test: Immunostaining and confocal microscopy of PHA blasts. Type of test: cell-based. As for the experimental part:
Cell-surface staining of 2-OH-βCD-treated and untreated cells was performed under saturating conditions. 2-OH-βCD-treated and untreated PHA blasts (3×10^5) were washed in cold PBS and pre-incubated on ice for 15 min in 5% NGS/PBS. Cells were then incubated with MAb 1-5 μg in 5% NGS/PBS 45 min on ice, washed with PBS and then incubated with 2 μg of FITC-GAM in 5% NGS/PBS. The cells were then fixed with 2% paraformaldehyde in PBS and spun onto poly-L-lysine coated slides using cyto-funnels. The pellets were overlaid with 50 μl of 25% glycerol in PBS and a coverslip was positioned over the droplet. The edges of the slides were sealed with nail polish before storing them at 4° C. This staining procedure was also performed with cells prefixed with 2% paraformaldehyde in PBS prior to MAb staining. Viewing of slides was performed with an Olympus IX50 confocal microscope under oil immersion at 100x magnification. Micrographs were acquired onto a Silicon Graphics Workstation with Intervision software. Final images were enhanced on the Silicon Graphics Workstation by two-dimensional deconvolution, and brightness and contrast were adjusted for viewing.
Patchy staining of CXCR4 persisted after 2-OH-βCD treatment whether the cells were fixed before or after mAb staining. […]

“2-hydroxypropyl-β-cyclodextrin [2-OH-βCD]”: the “Number of mice from which HIV-1 was cultured/Number of mice exposed to HIV-1” value in the test with HIV-1Ba-L-infected HuPBL (3% w/v intravaginally 5 min prior to infected HuPBMC challenge) was 1/11*. The “Number of mice from which HIV-1 was cultured/Number of mice exposed to HIV-1” value in the test on HIV-1Ba-L-infected HuPBL (3% w/v premixed with HIV-infected HuPBMC, intravaginal) is listed as 2/16*. For the same substance, the “Cell-associated HIV-1 transmission by the vaginal route” value with HIV-1Ba-L-infected HuPBL (3% w/v, even when administered prior to infected PBMC) is listed as “significantly inhibited”. The “Reduction of virus binding, by mean channel fluorescence of the anti-class II MHC mAb” value in the test on HIV-1RF (Jurkat cells treated with 20 mM) is listed as 70%. Also, in the test on HIV-1RF (treated Jurkat cells, HIVRF), the “MHM5 (anti-class I MHC) % Pos” value was 100%, the “MHM5 (anti-class I MHC) MCF” value is recorded as 167.8 MCF, the “MHM33 (anti-class II MHC) % Pos” value is reported as 26.0% and the “MHM33 (anti-class II MHC) MCF” value is given as 2.4 MCF. Further, in the test on HIV-1RF (treated Jurkat cells, no virus), the “IgG1 % Pos” value was found to be 3.4%, the “IgG1 MCF” value worked out at 0.7 MCF, the “MHM5 (anti-class I MHC) % Pos” value stood at 100% and the “MHM5 (anti-class I MHC) MCF” value is 165 MCF. Also, in the test on HIV-1RF (treated Jurkat cells, no virus), the “MHM33 (anti-class II MHC) % Pos” value was 3.3% and the “MHM33 (anti-class II MHC) MCF” value is given as 0.7 MCF. The “Distribution of CXCR4 on the cell surface” value in test [1] (PHA blasts after cholesterol depletion) is “not significantly redistributed”. In addition, the “Distribution of CD4 and CD45 on the cell surface” value in test [1] (PHA blasts after treatment) is given as “unchanged”.
